Drawing on ChEMBL document CHEMBL1156644, “Cembrane diterpenes from the gorgonian Leptogorgia laxa” (2008), this text covers GI50 for two molecules.

Holding throughout (assay type): functional
One assay relates to MDA-MB-231. Kind of assay: Cytotoxicity against human MDA-MB-231 cells by SRB method. In general terms: The SRB assay estimates cell density from bound dye.
For another assay, the system named is HT-29. Briefly: Cytotoxicity against human HT29 cells by SRB method.
For the next assay, the system named is A549. Briefly: Cytotoxicity against human A549 cells by SRB method.

As a reminder, the GI50 is the concentration at which growth is held to half of that of the control. A low value points to more potent growth inhibition. As for `C=C(C)[C@@H]1CC/C(C)=C/CC/C(C)=C\C(=O)C[C@@]2(C)O[C@@H]2C1` [LEPTODIENONE A], the GI50 worked out at 16.2 µM in the assay with MDA-MB-231 and 14.9 µM in the assay on HT-29.
As for `C=C(C)[C@@H]1CC/C(C)=C/CC/C(C)=C/C(=O)C[C@@]2(C)O[C@@H]2C1` [LEPTODIENONE B], the results for the GI50 in the assay on MDA-MB-231, with HT-29 and with A549 were 6.3 µM, 10.9 µM and 5.6 µM, respectively.
